Counter-ions that a name gives are not always drawn. Where only a bound is given, the exact number is not on record here.

Here are results for 15 molecules from US20240101528A1, “SUBSTITUTED PYRAZOLO PIPERIDINE CARBOXYLIC ACIDS” (BAYER AKTIENGESELLSCHAFT, priority 2020, published 2024).

This assay addresses T1, recombinant guanylate cyclase reporter cell line (Rattus norvegicus, UniProt P20595).
T1 construct: expressed in transfected cells
T1 sequence (P20595 1-619): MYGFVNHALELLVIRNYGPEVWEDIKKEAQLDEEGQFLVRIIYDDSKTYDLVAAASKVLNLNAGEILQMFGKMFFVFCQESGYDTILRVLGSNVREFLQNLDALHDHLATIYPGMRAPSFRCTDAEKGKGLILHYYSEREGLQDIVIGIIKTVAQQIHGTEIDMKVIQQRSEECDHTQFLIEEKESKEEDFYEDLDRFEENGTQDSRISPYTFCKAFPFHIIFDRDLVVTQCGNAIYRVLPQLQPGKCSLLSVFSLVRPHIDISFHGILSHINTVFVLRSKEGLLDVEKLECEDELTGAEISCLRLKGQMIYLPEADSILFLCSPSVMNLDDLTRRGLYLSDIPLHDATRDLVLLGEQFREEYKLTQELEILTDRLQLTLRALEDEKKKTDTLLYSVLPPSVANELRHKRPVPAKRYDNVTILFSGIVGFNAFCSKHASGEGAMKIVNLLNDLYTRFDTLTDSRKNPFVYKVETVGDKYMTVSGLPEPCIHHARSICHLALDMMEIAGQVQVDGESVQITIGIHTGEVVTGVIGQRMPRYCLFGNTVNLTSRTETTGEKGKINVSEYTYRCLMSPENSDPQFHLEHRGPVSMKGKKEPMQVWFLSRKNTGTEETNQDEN
T1 sequence (P19686 1-690 partner): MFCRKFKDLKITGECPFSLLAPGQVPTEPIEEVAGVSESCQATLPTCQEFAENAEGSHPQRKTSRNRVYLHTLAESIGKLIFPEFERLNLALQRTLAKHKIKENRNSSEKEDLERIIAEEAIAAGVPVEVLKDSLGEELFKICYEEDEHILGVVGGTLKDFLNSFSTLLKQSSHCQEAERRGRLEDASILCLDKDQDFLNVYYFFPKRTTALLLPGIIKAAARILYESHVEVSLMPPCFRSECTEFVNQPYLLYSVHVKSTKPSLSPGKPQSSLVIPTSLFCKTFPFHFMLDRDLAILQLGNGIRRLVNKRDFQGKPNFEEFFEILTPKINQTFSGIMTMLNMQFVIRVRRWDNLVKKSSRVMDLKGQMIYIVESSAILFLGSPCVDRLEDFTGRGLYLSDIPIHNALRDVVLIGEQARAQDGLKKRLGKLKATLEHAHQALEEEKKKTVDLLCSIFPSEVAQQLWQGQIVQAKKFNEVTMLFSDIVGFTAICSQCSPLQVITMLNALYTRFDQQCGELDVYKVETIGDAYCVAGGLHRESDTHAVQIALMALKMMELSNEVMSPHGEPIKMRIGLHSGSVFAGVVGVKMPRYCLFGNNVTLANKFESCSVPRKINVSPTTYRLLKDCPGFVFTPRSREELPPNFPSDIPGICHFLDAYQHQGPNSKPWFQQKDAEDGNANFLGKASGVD
The assay is described as follows: Effect on a recombinant guanylate cyclase reporter cell line. The class given is cell-based. As to conditions: for EC50: half maximal effective concentration; for MEC: minimum effective concentration. On the procedure:
B-1. Effect on a Recombinant Guanylate Cyclase Reporter Cell Line
The cellular activity of the compounds according to the invention was determined using a recombinant guanylate cyclase reporter cell line, as described in F. Wunder et al., Anal. Biochem. 339, 104-112 (2005).

In the case of `O=C(O)c1cnn(C2CCCN(c3cc(Cl)ccc3-c3ccc(N4CCN(CC(F)(F)F)CC4)nc3)C2)c1C(F)F` (single isomer, unassigned; enantiomer 1) [Example 64, 1-[1-(5-Chloro-2-{6-[4-(2,2,2-trifluoroethyl)piperazin-1-yl]pyridin-3-yl}phenyl)piperidin-3-yl]-5-(difluoromethyl)-1H-pyrazole-4-carboxylic (Enantiomer 1)], the half-maximal effective concentration (EC50) was determined as 0.0019 µM and the MEC came out at 1.0 nM.

Consider `O=C(O)c1cnn(C2CCCN(c3cc(Cl)ccc3-c3ccc(N4CCN(CCC(F)(F)F)CC4)nc3)C2)c1C(F)F` (single isomer, unassigned; enantiomer 1) [Example 66, 1-[1-(5-Chloro-2-{6-[4-(3,3,3-trifluoropropyl)piperazin-1-yl]pyridin-3-yl}phenyl)piperidin-3-yl]-5-(difluoromethyl)-1H-pyrazole-4-carboxylic acid hydrochloride (Enantiomer 1)], for which the EC50 was less than 0.001 µM and the MEC is listed as less than 0.3 nM.

With `CCN1CCN(c2ccc(-c3ccc(C(F)(F)F)cc3N3CCCC(n4ncc(C(=O)O)c4C(F)F)C3)cc2)CC1` (single isomer, unassigned; enantiomer 1) [Example 73, 5-(Difluoromethyl)-1-{1-[4′-(4-ethylpiperazin-1-yl)-4-(trifluoromethyl)[biphenyl]-2-yl]piperidin-3-yl}-1H-pyrazole-4-carboxylic acid hydrochloride (Enantiomer 1)], the EC50 was 0.066 µM and the MEC came out at 10.0 nM.

Regarding `CN1CCN(c2ccc(-c3ccc(Cl)cc3N3CCCC(n4ncc(C(=O)O)c4C(F)F)C3)cc2)CC1` (single isomer, unassigned; enantiomer 2) [Example 2, 1-{1-[4-Chloro-4′-(4-methylpiperazin-1-yl)[biphenyl]-2-yl]piperidin-3-yl}-5-(difluoromethyl)-1H-pyrazole-4-carboxylic acid hydrochloride (Enantiomer 2)], the half-maximal effective concentration (EC50) stood at 0.0252 µM and the MEC was 7.0 nM.

In the case of `CCN1CCN(c2ccc(-c3ccc(Cl)cc3N3CCCC(n4ncc(C(=O)O)c4C(F)F)C3)cc2)CC1` (single isomer, unassigned; enantiomer 2) [Example 4, 1-{1-[4-Chloro-4′-(4-ethylpiperazin-1-yl)[biphenyl]-2-yl]piperidin-3-yl}-5-(difluoromethyl)-1H-pyrazole-4-carboxylic acid hydrochloride (Enantiomer 2)], the concentration for a half-maximal effect (EC50) is 0.013 µM and the MEC is 1.3 nM.

On to `CC(C)N1CCN(c2ccc(-c3ccc(Cl)cc3N3CCCC(n4ncc(C(=O)O)c4C(F)F)C3)cc2)CC1` (single isomer, unassigned; enantiomer 2) [Example 6, 1-{1-[4-Chloro-4′-(4-isopropylpiperazin-1-yl)[biphenyl]-2-yl]piperidin-3-yl}-5-(difluoromethyl)-1H-pyrazole-4-carboxylic acid (Enantiomer 2)], for which the EC50 worked out at 0.0335 µM and the MEC came out at 3.0 nM.

`CC(C)N1CCN(c2ccc(-c3ccc(Cl)cc3N3CCCC(n4ncc(C(=O)O)c4C(F)F)C3)cc2)CC1` (single isomer, unassigned; enantiomer 2) [Example 7, 1-{1-[4-Chloro-4′-(4-isopropylpiperazin-1-yl)[biphenyl]-2-yl]piperidin-3-yl}-5-(difluoromethyl)-1H-pyrazole-4-carboxylic acid hydrochloride (Enantiomer 2)]: the 50% effective concentration (EC50) came to 0.0433 µM and the MEC is 10.0 nM.

Turning to `O=C(O)c1cnn(C2CCCN(c3cc(Cl)ccc3-c3ccc(N4CCN(C5CC5)CC4)cc3)C2)c1C(F)F` (single isomer, unassigned; enantiomer 2) [Example 9, 1-{1-[4-Chloro-4′-(4-cyclopropylpiperazin-1-yl)[biphenyl]-2-yl]piperidin-3-yl}-5-(difluoromethyl)-1H-pyrazole-4-carboxylic acid hydrochloride (Enantiomer 2)], the EC50 came out at 0.0365 µM and the MEC turned out to be 3.0 nM.

As for `CC(C)(C)CN1CCN(c2ccc(-c3ccc(Cl)cc3N3CCCC(n4ncc(C(=O)O)c4C(F)F)C3)cc2)CC1` (single isomer, unassigned; enantiomer 2) [Example 13, 1-[(1-{4-Chloro-4′-[4-(2,2-dimethylpropyl)piperazin-1-yl][biphenyl]-2-yl}piperidin-3-yl]-5-(difluoromethyl)-1H-pyrazole-4-carboxylic acid hydrochloride (Enantiomer 2)], the half-maximal effective concentration (EC50) stood at 0.089 µM and the MEC turned out to be 3.0 nM.

Regarding `O=C(O)c1cnn(C2CCCN(c3cc(Cl)ccc3-c3ccc(N4CCN(CC5CCC5)CC4)cc3)C2)c1C(F)F` (single isomer, unassigned; enantiomer 2) [Example 14, 1-[1-{4-Chloro-4′-[4-(cyclobutylmethyl)piperazin-1-yl][biphenyl]-2-yl}piperidin-3-yl]-5-(difluoromethyl)-1H-pyrazole-4-carboxylic acid hydrochloride (Enantiomer 2)], the EC50 came out at 0.0132 µM and the MEC was 1.0 nM.

Turning to `O=C(O)c1cnn(C2CCCN(c3cc(Cl)ccc3-c3ccc(N4CCN(CC5(F)CCC5)CC4)cc3)C2)c1C(F)F` (single isomer, unassigned; enantiomer 2) [Example 16, 1-[1-(4-Chloro-4′-{4-[(1-fluorocyclobutyl)methyl]piperazin-1-yl}[biphenyl]-2-yl)piperidin-3-yl]-5-(difluoromethyl)-1H-pyrazole-4-carboxylic acid hydrochloride (Enantiomer 2)], the EC50 was 0.0026 µM and the MEC worked out at 0.3 nM.

Take `O=C(O)c1cnn(C2CCCN(c3cc(Cl)ccc3-c3ccc(N4CCN(CC56CC(F)(C5)C6)CC4)cc3)C2)c1C(F)F` (single isomer, unassigned; enantiomer 2) [Example 17, 1-[1-(4-Chloro-4′-{4-[(3-fluorobicyclo[1.1.1]pentan-1-yl)methyl]piperazin-1-yl}[biphenyl]-2-yl)piperidin-3-yl]-5-(difluoromethyl)-1H-pyrazole-4-carboxylic acid hydrochloride (Enantiomer 2)]: the concentration giving a half-maximal response (EC50) was found to be 0.0102 µM and the MEC stood at 1.0 nM.

With `O=C(O)c1cnn(C2CCCN(c3cc(Cl)ccc3-c3ccc(N4CCN(CCC(F)F)CC4)cc3)C2)c1C(F)F` (single isomer, unassigned; enantiomer 2) [Example 22, 1-(1-{4-Chloro-4′-[4-(3,3-difluoropropyl)piperazin-1-yl][biphenyl]-2-yl}piperidin-3-yl)-5-(difluoromethyl)-1H-pyrazole-4-carboxylic acid hydrochloride (Enantiomer 2)], the concentration giving a half-maximal response (EC50) was found to be 0.001 µM and the MEC is on record as less than 0.3 nM.

`O=C(O)c1cnn(C2CCCN(c3cc(Cl)ccc3-c3ccc(N4CCN(CCC(F)(F)F)CC4)cc3)C2)c1C(F)F` (single isomer, unassigned; enantiomer 2) [Example 23, 1-(1-{4-Chloro-4′-[4-(3,3,3-trifluoropropyl)piperazin-1-yl][biphenyl]-2-yl}piperidin-3-yl)-5-(difluoromethyl)-1H-pyrazole-4-carboxylic acid hydrochloride (Enantiomer 2)]: the concentration for a half-maximal effect (EC50) turned out to be 0.001 µM and the MEC was less than 0.3 nM.

As to `CC(F)(F)CN1CCN(c2ccc(-c3ccc(Cl)cc3N3CCCC(n4ncc(C(=O)O)c4C(F)F)C3)cc2)CC1` (single isomer, unassigned; enantiomer 2) [Example 25, 1-(1-{4-Chloro-4′-[4-(2,2-difluoropropyl)piperazin-1-yl][biphenyl]-2-yl}piperidin-3-yl)-5-(difluoromethyl)-1H-pyrazole-4-carboxylic acid hydrochloride (Enantiomer 2)], the EC50 stood at 0.0024 µM and the MEC was 0.3 nM.
